Target: T1, glucocerebrosidase (Gcase) (Homo sapiens, UniProt P04062)
T1 construct: micellar solution containing 10 nM GCase and 100 nM saposin C
T1 sequence (P04062 40-536): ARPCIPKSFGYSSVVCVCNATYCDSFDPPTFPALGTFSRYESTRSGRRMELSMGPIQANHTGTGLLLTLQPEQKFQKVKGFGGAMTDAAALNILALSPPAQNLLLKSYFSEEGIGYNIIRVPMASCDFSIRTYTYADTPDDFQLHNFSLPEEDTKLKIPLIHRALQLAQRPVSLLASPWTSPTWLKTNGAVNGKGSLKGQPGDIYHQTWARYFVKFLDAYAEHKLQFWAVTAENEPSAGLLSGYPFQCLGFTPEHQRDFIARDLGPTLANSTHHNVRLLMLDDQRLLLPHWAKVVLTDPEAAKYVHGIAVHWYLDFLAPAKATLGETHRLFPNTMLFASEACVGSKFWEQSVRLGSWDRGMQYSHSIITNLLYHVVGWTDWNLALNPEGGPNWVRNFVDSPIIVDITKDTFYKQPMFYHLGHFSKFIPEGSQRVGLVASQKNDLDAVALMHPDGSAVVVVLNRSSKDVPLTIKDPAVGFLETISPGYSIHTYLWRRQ
Assay: Glucocerebrosidase (Gcase) activation assay with 4-methylumbelliferyl-beta-D-glucopyranoside substrate, saposin C and phosphatidylserine/triton micelles, fluorescence readout
Assay type: biochemical
Summary of the method: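 Test compounds are first screened at 1.0 and 0.1 μM final, then titrated in 8 points (3-fold from 5 μM) against human GCase with saposin C in phosphatidylserine/triton X-100 micelles at pH 4.7. Reactions run 15 min at room temperature, with fluorescence read at 365/440 nm.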

Percent Gcase Activation, 0.1 μM Test Compound (test compound at 0.1 μM)	Percent Gcase Activation, 1 μM Test Compound (test compound at 1.0 μM)	Structure (SMILES)	also measured
		C#CC(C)(C)NC(=O)c1cnn2c(C)cc(-c3cccc(Cl)n3)nc12 [III-63]	Percent Gcase Activation, 0.1 μM Test Compound (0.1 μM test compound, Table 3A): ** (Gcase activation in the range of 10% up to 20%); Percent Gcase Activation, 1 μM Test Compound (1 μM test compound, Table 3A): ++ (Gcase activation in the range of 30% up to 60%)
*** (greater than 20% Gcase activation)	+++ (Gcase activation greater than 60%)	COc1ccc(F)cc1-c1cc(C)n2ncc(C(=O)N[C@H](C)C(F)(F)F)c2n1 [III-195]	
*** (greater than 20% Gcase activation)	+++ (Gcase activation greater than 60%)	Cc1cc(-n2ccc(Cl)n2)nc2c(C(=O)NC(C3CC3)C(F)(F)F)cnn12 (centres unmarked) [III-107]	
		Cc1cc(-c2cccnc2)n2ncc(C(=O)NC(C)(C)C3CC3)c2n1 [III-19]	Percent Gcase Activation, 0.1 μM Test Compound (0.1 μM test compound, Table 3A): * (less than 10% Gcase activation); Percent Gcase Activation, 1 μM Test Compound (1 μM test compound, Table 3A): + (less than 30% Gcase activation)
		Cc1cc(-c2nnc(C(C)C)o2)nc2c(C(=O)N[C@@H](C3CC3)C(F)(F)F)cnn12 [III-392]	Percent Gcase Activation, 0.1 μM Test Compound (0.1 μM test compound): ** (Gcase activation in the range of 10% up to 20%); Percent Gcase Activation, 1 μM Test Compound (1 μM test compound): +++ (Gcase activation greater than 60%)
		Cc1cc(-c2c(F)cccc2C#N)nc2c(C(=O)N[C@@H](C)C(F)(F)F)cnn12 [III-400]	Percent Gcase Activation, 0.1 μM Test Compound (0.1 μM test compound): ** (Gcase activation in the range of 10% up to 20%); Percent Gcase Activation, 1 μM Test Compound (1 μM test compound): +++ (Gcase activation greater than 60%)
		Cc1cc(-c2ccnnc2)nc2c(C(=O)NC(C3CC3)C(F)(F)F)cnn12 (centres unmarked) [III-325]	Percent Gcase Activation, 0.1 μM Test Compound (0.1 μM test compound): * (less than 10% Gcase activation); Percent Gcase Activation, 1 μM Test Compound (1 μM test compound): + (less than 30% Gcase activation)
		Cc1cc(C)n2ncc(C(=O)Nc3ccc(C#CCN(C)C)cc3)c2n1 [IV-2]	Percent Gease Activation, 0.1 μM Test Compound (0.1 μM test compound, Table 4): * (less than 10% Gcase activation); Percent Gease Activation, 1 μM Test Compound (1 μM test compound, Table 4): + (less than 30% Gcase activation)
*** (greater than 20% Gcase activation)	+++ (Gcase activation greater than 60%)	Cc1oc(C#N)cc1-c1cc(C)n2ncc(C(=O)NC(C3CC3)C(F)(F)F)c2n1 (centres unmarked) [III-242]	
		Cc1cc(-c2sccc2C#N)nc2c(C(=O)NC(C)C(F)(F)F)cnn12 (centres unmarked) [III-300]	Percent Gcase Activation, 0.1 μM Test Compound (0.1 μM test compound): *** (greater than 20% Gcase activation); Percent Gcase Activation, 1 μM Test Compound (1 μM test compound): +++ (Gcase activation greater than 60%)
* (less than 10% Gcase activation)	+++ (Gcase activation greater than 60%)	Cc1ncc(-c2cc(C)n3ncc(C(=O)NC(C)(C)C4CC4)c3n2)o1 [III-252]	
*** (greater than 20% Gcase activation)	+++ (Gcase activation greater than 60%)	Cc1cc(-c2ccon2)nc2c(C(=O)N[C@H](C3CC3)C(F)(F)F)cnn12 [III-240]	
		C#Cc1cncc(-c2cc(C)n3ncc(C(=O)N[C@@H](C4CC4)C(F)(F)F)c3n2)c1 [III-383]	Percent Gcase Activation, 0.1 μM Test Compound (0.1 μM test compound): *** (greater than 20% Gcase activation); Percent Gcase Activation, 1 μM Test Compound (1 μM test compound): +++ (Gcase activation greater than 60%)
		Cc1cc(C)n2ncc(C(=O)NC(C)(C)C3CC3)c2n1 [III-2]	Percent Gcase Activation, 0.1 μM Test Compound (0.1 μM test compound, Table 3A): ** (Gcase activation in the range of 10% up to 20%); Percent Gcase Activation, 1 μM Test Compound (1 μM test compound, Table 3A): +++ (Gcase activation greater than 60%)
*** (greater than 20% Gcase activation)	+++ (Gcase activation greater than 60%)	Cc1cc(-c2cccc(Cl)n2)nc2c(C(=O)NC(C3CC3)C(F)(F)F)cnn12 (centres unmarked) [III-237]	
* (less than 10% Gcase activation)	+ (less than 30% Gcase activation)	COc1c(C#N)cccc1-c1cc(C)n2ncc(C(=O)NC(C)C(F)(F)F)c2n1 (centres unmarked) [III-142]	

Percent Gcase Activation, 0.1 μM Test Compound (test compound at 0.1 μM)	Percent Gcase Activation, 1 μM Test Compound (test compound at 1.0 μM)	Structure (SMILES)	also measured
* (less than 10% Gcase activation)	+ (less than 30% Gcase activation)	Cc1cc(N2CCN(C(C)C)C2=O)nc2c(C(=O)NC(C)C(F)(F)F)cnn12 (centres unmarked) [III-227]	
		Cc1cc(-c2ccoc2F)nc2c(C(=O)N[C@H](C)C(F)(F)F)cnn12 [III-335]	Percent Gcase Activation, 0.1 μM Test Compound (0.1 μM test compound): *** (greater than 20% Gcase activation); Percent Gcase Activation, 1 μM Test Compound (1 μM test compound): +++ (Gcase activation greater than 60%)
*** (greater than 20% Gcase activation)	+++ (Gcase activation greater than 60%)	Cc1cc(-c2ccc3scnc3c2)nc2c(C(=O)N[C@H](C)C3CC3)cnn12 [III-193]	
		Cc1cc(N2CCOCC2)nc2c(C(=O)NC(C)(C)C3CC3)cnn12 [III-59]	Percent Gcase Activation, 0.1 μM Test Compound (0.1 μM test compound, Table 3A): * (less than 10% Gcase activation); Percent Gcase Activation, 1 μM Test Compound (1 μM test compound, Table 3A): ++ (Gcase activation in the range of 30% up to 60%)
*** (greater than 20% Gcase activation)	+++ (Gcase activation greater than 60%)	Cc1cc(-c2sccc2C#N)nc2c(C(=O)NC(C3CC3)C(F)(F)F)cnn12 (centres unmarked) [III-189]	
* (less than 10% Gcase activation)	+++ (Gcase activation greater than 60%)	CCc1cc(N2CCOCC2)nc2c(C(=O)NC(C3CC3)C(F)(F)F)cnn12 (centres unmarked) [III-238]	
* (less than 10% Gcase activation)	+ (less than 30% Gcase activation)	Cc1cc(N2CCCN(C(C)C)C2=O)nc2c(C(=O)NC(C)(C)C)cnn12 [III-258]	
		Cc1cc(-c2ccccn2)n2ncc(C(=O)N[C@@H](C)C3CC3)c2n1 [III-25]	Percent Gcase Activation, 0.1 μM Test Compound (0.1 μM test compound, Table 3A): * (less than 10% Gcase activation); Percent Gcase Activation, 1 μM Test Compound (1 μM test compound, Table 3A): + (less than 30% Gcase activation)
		Cc1cc(-c2cc(C)n3ncc(C(=O)N[C@@H](C)C(F)(F)F)c3n2)co1 [III-339]	Percent Gcase Activation, 0.1 μM Test Compound (0.1 μM test compound): *** (greater than 20% Gcase activation); Percent Gcase Activation, 1 μM Test Compound (1 μM test compound): +++ (Gcase activation greater than 60%)
*** (greater than 20% Gcase activation)	+++ (Gcase activation greater than 60%)	Cc1cc(-c2ccc(F)c(C(N)=O)c2)nc2c(C(=O)NC(C3CC3)C(F)(F)F)cnn12 (centres unmarked) [III-162]	
		Cc1oc(C(C)C)nc1-c1cc(C)n2ncc(C(=O)N[C@H](C3CC3)C(F)(F)F)c2n1 [III-332]	Percent Gcase Activation, 0.1 μM Test Compound (0.1 μM test compound): *** (greater than 20% Gcase activation); Percent Gcase Activation, 1 μM Test Compound (1 μM test compound): +++ (Gcase activation greater than 60%)
		Cc1ccc(-c2cc(C)n3ncc(C(=O)N[C@H](C4CC4)C(F)(F)F)c3n2)c(F)n1 [III-372]	Percent Gcase Activation, 0.1 μM Test Compound (0.1 μM test compound): *** (greater than 20% Gcase activation); Percent Gcase Activation, 1 μM Test Compound (1 μM test compound): +++ (Gcase activation greater than 60%)
*** (greater than 20% Gcase activation)	+++ (Gcase activation greater than 60%)	Cc1cc(-c2ccc(Cl)nc2)nc2c(C(=O)NC(C3CC3)C(F)(F)F)cnn12 (centres unmarked) [III-116]	
		Cc1cc(C#N)c(-c2cc(C)n3ncc(C(=O)N[C@@H](C)C(F)(F)F)c3n2)s1 [III-348]	Percent Gcase Activation, 0.1 μM Test Compound (0.1 μM test compound): *** (greater than 20% Gcase activation); Percent Gcase Activation, 1 μM Test Compound (1 μM test compound): +++ (Gcase activation greater than 60%)
* (less than 10% Gcase activation)	+ (less than 30% Gcase activation)	Cc1cc(N2CCN(C(C)C)C2=O)nc2c(C(=O)NC(C)(C)C)cnn12 [III-232]	

Structure (SMILES)	Percent Gcase Activation, 0.1 μM Test Compound (test compound at 0.1 μM)	Percent Gcase Activation, 1 μM Test Compound (test compound at 1.0 μM)	also measured
Cc1cc(-c2cccc3ncoc23)nc2c(C(=O)N[C@H](C)C3CC3)cnn12 [III-218]	* (less than 10% Gcase activation)	++ (Gcase activation in the range of 30% up to 60%)	
Cc1cc(N2CCCN(C(C)C)C2=O)nc2c(C(=O)NC(C3CC3)C(F)(F)F)cnn12 (centres unmarked) [III-257]	** (Gcase activation in the range of 10% up to 20%)	++ (Gcase activation in the range of 30% up to 60%)	
Cc1cc(-c2cccc3ncoc23)nc2c(C(=O)N[C@@H](C)C3CC3)cnn12 [III-217]	** (Gcase activation in the range of 10% up to 20%)	+++ (Gcase activation greater than 60%)	
COc1cncc(-c2cc(C)n3ncc(C(=O)NC(C)C(F)(F)F)c3n2)c1 (centres unmarked) [III-270]	** (Gcase activation in the range of 10% up to 20%)	+++ (Gcase activation greater than 60%)	
Cc1cc(-c2ccccc2C#N)nc2c(C(=O)N[C@H](C)C(F)(F)F)cnn12 [III-212]	* (less than 10% Gcase activation)	++ (Gcase activation in the range of 30% up to 60%)	
COc1c(F)cccc1-c1cc(C)n2ncc(C(=O)NC(C3CC3)C(F)(F)F)c2n1 (centres unmarked) [III-139]	** (Gcase activation in the range of 10% up to 20%)	+++ (Gcase activation greater than 60%)	
